Results reported in patent US20130237550A1, “ARYLVINYLAZACYCLOALKANE COMPOUNDS FOR CONSTIPATION” (TARGACEPT, INC., priority 2010, published 2013).

Assays:
[1] = tested on: Taxol®-induced neuropathy; test: Taxol-induced (chemotherapy induced) neuropathy model; format: in vivo
[2] = biological target: α4β2 nueronal nicotinic receptors (Homo sapiens, UniProt P17787+P43681); test: Agonism at α4β2 neuronal nicotinic receptors (statement)
subjects with IBS-C = test: Randomized, double-blind, placebo controlled proof of principle study in IBS-C; format: in vivo, human
Protocol: A randomized, double-blind, placebo controlled, parallel group, proof of principle study to evaluate the safety, tolerability, and efficacy of Compound A in the treatment of Constipation-Predominant Irritable Bowel Syndrome was conducted.
The objectives of the study include the following: to assess the efficacy of Compound A in the treatment of Constipation Predominant Irritable Bowel Syndrome (IBS-C); and to assess the safety, tolerability and pharmacokinetic profile of Compound A in subjects with IBS-C when administered as a enteric coated capsule for a period of 28 days.
Subjects with constipation predominant irritable bowel syndrome (IBS-C) defined by: the ROME III criteria as: recurrent abdominal pain or discomfort at least 3 days per month, during the previous 3 months that is associated with 2 or more of the following: (1) relieved by defecation; (2) onset associated with a change in stool frequency; and/or (3) onset associated with a change in stool appearance.
Treatment included 5 mg daily (as Enteric Coated capsule) for 14 days followed by 5 mg BID for another 14 days. One endpoint includes global IBS symptom relief (7-point scale). Another endpoint includes bowel movement frequency, pain, bloating, straining, stool consistency, and frequency of rescue medication (laxative). Statistically, a was set to 0.1.

[3] = Single (SRD) and multiple rising dose (MRD) studies in normal healthy subjects; format: in vivo, human; details: oral; human plasma; read-out: systemic (plasma) half-life
Protocol: (§1) In the MRD study, following doses 10 mg administered 4 times daily, nausea and vomiting typically occurred within 30 min of dosing—prior to significant systemic absorption. Diarrhea was typically observed more than 5 hours following dosing, when systemic concentrations were approximately 20% of Cmax values. […] Such pharmacodynamic GI motility responses appear to correlate primarily with local effects (possibly agonism of α3β4 receptors located on enterochromaffin cells) rather than systemic plasma concentrations.

normal healthy subjects = test: as above; format: in vivo, human
Protocol: as §1

[4] = biological target: α3β4 nueronal nicotinic receptors (Homo sapiens, UniProt P30926+P32297); test: Agonism at α3β4 neuronal nicotinic receptors (statement)
Sequence of α3β4 nueronal nicotinic receptors (P32297 32-505): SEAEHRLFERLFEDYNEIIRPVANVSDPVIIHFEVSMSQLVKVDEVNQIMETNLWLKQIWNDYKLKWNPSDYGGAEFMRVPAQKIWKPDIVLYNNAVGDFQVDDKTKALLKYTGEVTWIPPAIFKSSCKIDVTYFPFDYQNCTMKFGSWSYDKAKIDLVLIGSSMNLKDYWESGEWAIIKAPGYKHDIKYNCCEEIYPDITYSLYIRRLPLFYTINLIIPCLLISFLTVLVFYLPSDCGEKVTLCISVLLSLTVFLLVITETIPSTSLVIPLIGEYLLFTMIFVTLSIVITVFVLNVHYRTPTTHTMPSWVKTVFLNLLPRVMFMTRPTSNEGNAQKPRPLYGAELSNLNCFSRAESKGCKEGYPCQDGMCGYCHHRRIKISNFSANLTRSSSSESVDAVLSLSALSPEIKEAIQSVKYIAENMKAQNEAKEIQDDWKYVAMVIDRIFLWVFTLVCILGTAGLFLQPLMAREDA
Sequence of α3β4 nueronal nicotinic receptors (P30926 22-498): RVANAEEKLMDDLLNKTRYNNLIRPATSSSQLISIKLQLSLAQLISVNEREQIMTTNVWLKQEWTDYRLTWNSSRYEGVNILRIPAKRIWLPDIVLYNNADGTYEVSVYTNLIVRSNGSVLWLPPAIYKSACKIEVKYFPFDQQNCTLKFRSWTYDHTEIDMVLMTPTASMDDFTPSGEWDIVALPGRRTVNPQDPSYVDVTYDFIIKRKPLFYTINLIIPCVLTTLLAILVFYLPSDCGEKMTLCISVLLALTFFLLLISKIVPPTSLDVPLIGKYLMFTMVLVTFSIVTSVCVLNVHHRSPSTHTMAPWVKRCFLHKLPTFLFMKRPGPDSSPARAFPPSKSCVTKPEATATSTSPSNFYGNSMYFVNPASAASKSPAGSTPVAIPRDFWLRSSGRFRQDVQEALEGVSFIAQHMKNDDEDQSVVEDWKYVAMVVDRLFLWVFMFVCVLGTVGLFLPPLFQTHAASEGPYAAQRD

[5] = tested on: rat Streptozotocin-induced diabetic neuropathy model; test: Streptozotocin-induced diabetic neuropathy (allodynia) model; format: in vivo; details: STZ rat; for pain sensitivity (allodynia testing of the hindpaw): Week 6, versus vehicle-treated animals
Excerpt: Preclinically, in two animal models of neuropathic pain, repeat administration of Compound A produced significant analgesia. […] With reference to WO 08/157,365, the rat Streptozotocin-induced diabetic neuropathy model is a clinically relevant model of diabetic neuropathy, which replicates elements of the human situation diabetic condition such as high glucose levels, neuropathic pain in the extremities, and generally poor health.

Sequence of α4β2 nueronal nicotinic receptors (P43681 29-627 limits assumed): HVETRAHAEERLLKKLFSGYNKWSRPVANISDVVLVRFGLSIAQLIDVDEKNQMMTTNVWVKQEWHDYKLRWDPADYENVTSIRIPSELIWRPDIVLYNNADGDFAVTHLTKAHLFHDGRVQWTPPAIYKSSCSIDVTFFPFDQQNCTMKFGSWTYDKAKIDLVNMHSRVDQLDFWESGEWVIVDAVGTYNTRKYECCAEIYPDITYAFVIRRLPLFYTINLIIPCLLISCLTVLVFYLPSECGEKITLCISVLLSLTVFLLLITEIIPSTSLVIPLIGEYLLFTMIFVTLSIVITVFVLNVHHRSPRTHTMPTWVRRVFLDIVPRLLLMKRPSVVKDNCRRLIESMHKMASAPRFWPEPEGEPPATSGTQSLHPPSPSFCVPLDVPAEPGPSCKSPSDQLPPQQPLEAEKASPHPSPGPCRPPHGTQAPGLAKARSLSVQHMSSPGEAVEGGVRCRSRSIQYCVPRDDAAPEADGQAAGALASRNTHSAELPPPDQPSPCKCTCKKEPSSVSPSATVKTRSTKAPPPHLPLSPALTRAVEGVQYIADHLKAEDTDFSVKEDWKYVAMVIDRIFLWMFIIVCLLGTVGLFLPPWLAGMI
Sequence of α4β2 nueronal nicotinic receptors (P17787 26-502): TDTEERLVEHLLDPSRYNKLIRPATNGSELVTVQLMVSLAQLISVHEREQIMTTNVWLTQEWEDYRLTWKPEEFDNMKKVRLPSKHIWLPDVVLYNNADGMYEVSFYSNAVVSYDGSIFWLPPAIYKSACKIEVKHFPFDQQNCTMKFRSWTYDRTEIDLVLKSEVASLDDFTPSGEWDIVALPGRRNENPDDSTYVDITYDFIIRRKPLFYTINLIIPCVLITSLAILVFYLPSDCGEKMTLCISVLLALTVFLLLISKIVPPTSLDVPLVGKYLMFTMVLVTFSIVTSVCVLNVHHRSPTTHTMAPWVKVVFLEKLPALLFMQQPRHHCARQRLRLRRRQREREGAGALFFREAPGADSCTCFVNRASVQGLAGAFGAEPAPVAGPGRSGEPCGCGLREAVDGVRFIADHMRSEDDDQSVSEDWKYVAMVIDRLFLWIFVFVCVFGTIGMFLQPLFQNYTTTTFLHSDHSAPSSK

C(=C\[C@H]1CCNC1)/c1cncnc1 [Compound A, (R)-5-((E)-2-pyrrolidin-3-ylvinyl)pyrimidine]
analgesic effect (allodynia) ([1]; chronically administered): analgesic effect | receptor activity type [2]: agonist | analgesic properties (subjects with IBS-C; IBS-C subjects): appears to lack analgesic properties | most commonly reported adverse events (subjects with IBS-C; IBS-C subjects, 28 days): headache or gastrointestinal | severity of adverse events (subjects with IBS-C; IBS-C subjects, 28 days): mild to moderate | tolerability (subjects with IBS-C; enteric coated capsule, 5 mg daily 14 days then 5 mg BID 14 days): generally well tolerated | spontaneous bowel movements (SBM) (subjects with IBS-C; versus placebo, maintained over at least 1 month): robust increases | SBM relative to Tegaserod, Lubiprostone and Linaclotide (subjects with IBS-C; week 4, FIG. 2, comparator data from literature): compares favorably | half-life [3]: ≤ 1 h | time of diarrhea after dosing (normal healthy subjects; MRD study, 10 mg 4 times daily): more than 5 hours | time of nausea and vomiting after dosing (normal healthy subjects; MRD study, 10 mg 4 times daily): ≤ 30 min | systemic concentration when diarrhea observed (normal healthy subjects; MRD study, more than 5 hours following dosing): approximately 20 % of Cmax values | most commonly observed adverse events (normal healthy subjects; SRD and MRD studies, healthy subjects): nausea, vomiting and diarrhea | GI motility (normal healthy subjects; healthy human subjects): increase in GI motility | receptor activity type [4]: agonist | blood glucose levels [5]: absence of any changes to blood glucose levels | pain sensitivity (allodynia testing of the hindpaw) [5]: significant reversal of this pain

NCC1(CC(=O)O)CCCCC1 [Gabapentin, reference compound]
analgesic effect (allodynia) ([1]; acutely administered): analgesic effect

insulin: insulin-treated group in the STZ-rat model of diabetic neuropathy [reference compound]
blood glucose levels [5]: reduced blood glucose levels | pain sensitivity (allodynia testing of the hindpaw) [5]: did not have significant improvement in pain sensitivity
